Measurements from BindingDB's records for doi:10.1016/j.bmcl.2011.07.125 (Pfizer, 2011).

Assay: Antagonist activity at H4R in human eosinophils assessed as inhibition of histamine-induced shape change by GAFS assay

CN[C@@H]1CCN(c2cc(NCC3CC3)nc(N)n2)C1
IC50: 0.65 nM
